≈ marks a conversion by molar mass, not a printed value.
Legend:
Assay type in all cases: physicochemical
[1] = Solubility test; settings: for solubility at 2 h: 37 °C, thermodynamic from solid; for Solubility: 2 hours
Description: About 15 mg of the exemplary sample of the present invention was added to 1 mL of each solvent and was swelled at 37° C. for 2 hours under light resistant condition. After centrifugation, each supernatant was filtered, and 0.7 mL of a mixture of water and acetonitrile (1:1) was added to 0.1 mL of the filtrate.
Following of mobile phase: Control the gradient by mixing the mobile phase A and B as directed in the following table below • Flow rate: 1.0 mL per minutes • Time span of measurement: For 12 minutes after injection

[2] = Stability test, optical purity by chiral HPLC; settings: 40° C./75% RH (closed and open condition), 24 hours
Description: The optical purity was also measured by the following HPLC condition • Detector: UV at 240 nm • Column: […] IE (4.6×250 mm, 5 μm)/Daicel corp. • Column temperature: 40° C. • Mobile phase: n-hexane/ethanol/ethanolamine/acetic acid (65:35:0.5:0.2) • Flow rate: 1.0 mL/min • Injection: 5 μL • Sample temperature: 5° C. • Time span of measurement: 40 min Limit of Quantitation (LOQ): • Compound—RR,RS,SS: 0.05%
The optical purity was measured also with added 0.2% optical isomer.
The solid stability of the exemplary sample of the present invention and the free form obtained above was tested before and after the sample was stored at 40° C./75% RH (closed and open condition) for 24 hours.

[3] = Hygroscopicity: moisture adsorption/desorption test; settings: relative humidity of 95%, 25° C.
Description: The moisture adsorption/desorption test was carried out according to the following conditions.
Approximately 10 to 15 mg of the sample was filled in a dedicated quartz holder, and the weight of each sample at each humidity was continuously measured and recorded under the following conditions.

Row | SMILES | solubility at 2 h ([1]; 50 mM acetate buffer, pH 4, aqueous buffer, Acetate buffer (50 mM, pH 4.0)) | solubility at 2 h ([1]; 0.5% HPMC, aqueous with cosolvent or surfactant or cyclodextrin) | solubility at 2 h ([1]; First fluid for dissolution test, pH 1.2, simulated gastric fluid, pH 1.2, 37° C.) | solubility at 2 h ([1]; Second fluid for dissolution test, pH 6.8, aqueous buffer, pH 6.8, 37° C.) | solubility at 2 h ([1]; water) | change in the optical purity after storage [2] | hygroscopicity: mass change in moisture adsorption/desorption test ([3]; listed as free form) | Solubility ([1]; First fluid for dissolution test, pH 1.2, 37° C.) | Solubility ([1]; water, 37° C.) | hygroscopicity: mass change in moisture adsorption/desorption test ([3]; listed as obtained product)
1 | Cc1ccc(F)c([C@@H](C)[C@H](NS(=O)(=O)c2ccc(Cl)cc2C(N)=O)c2n[nH]c(=O)o2)c1C [Comparative Example, 5-chloro-2-(N-((1S,2R)-2-(6-fluoro-2,3-dimethylphenyl)-1-(5-oxo-4,5-dihydro-1,3,4-oxadiazol-2-yl)propyl)sulfamoyl)benzamide] | 250 µg/mL (≈ 518 µM) | 190 µg/mL (≈ 393 µM) | 230 µg/mL (≈ 476 µM) | 800 µg/mL (≈ 1660 µM) | 230 µg/mL (≈ 476 µM) | No significant change | about 3.8% |  |  | 
2 | Cc1ccc(F)c([C@@H](C)[C@H](NS(=O)(=O)c2ccc(Cl)cc2C(N)=O)c2n[nH]c(=O)o2)c1C [Exemplary Sample, 5-chloro-2-(N-((1S,2R)-2-(6-fluoro-2,3-dimethylphenyl)-1-(5-oxo-4,5-dihydro-1,3,4-oxadiazol-2-yl)propyl)sulfamoyl)benzamide] |  |  |  |  |  | No significant change |  | 230 µg/mL (≈ 476 µM) | 230 µg/mL (≈ 476 µM) | about 0.1%

From patent US12344588B2, “Sulfonamide compounds and use thereof” (Taiho Pharmaceutical Co., Ltd., priority 2017, dated 2025)
